Values quoted from earlier work, collected in PubChem BioAssay AID1259409 (Chemical Carcinogenesis Research Information System (CCRIS), 2018).

System: rodent chemically induced tumor inhibition, incidence and multiplicity
Test: CCRIS tumor inhibitor studies
Settings: for outcome: Carcinogen: SUBCUTANEOUS, Dose [Inhibitor]: 1,2-DIMETHYLHYDRAZINE, 540-73-8, Route [Inhibitor]: 0, 20 UG/ML IN DRINKING WATER 14 HR/D AT NIGHT TIME FOR 6 MO (STUDY DURATION: 6 MO), Dose [Carcinogen]: NONE

COc1ccc2[nH]cc(CCNC(C)=O)c2c1
tumour outcome (control, treated, inhibition, significance) (Carcinogen: N,N-DIETHYLNITROSAMINE [55-18-5], Dose [Inhibitor]: 400 PPM IN DIET, BEGINNING 1 WK AFTER FINAL CARCINOGEN DOSE, FOR STUDY DURATION (STUDY DURATION: 24 WK), Route [Inhibitor]: ORAL, Species: RAT, Strain/Sex: F344/MALE, Target Tissue: Type of Lesion: LIVER: HEPATOCELLULAR ADENOMA AND CARCINOMA, Dose [Carcinogen]: 100 MG/KG BW, 1/WK FOR 3 WK, Promoter: PHENOBARBITAL [50-06-6]): 24/24 (100%), 15/23 (65%), 35%, p<0.002 | tumour outcome (control, treated, inhibition, significance) (Carcinogen: N,N-DIETHYLNITROSAMINE [55-18-5], Dose [Inhibitor]: 400 PPM IN DIET, BEGINNING 1 WK AFTER FINAL CARCINOGEN DOSE, FOR STUDY DURATION (STUDY DURATION: 24 WK), Route [Inhibitor]: ORAL, Species: RAT, Strain/Sex: F344/MALE, Target Tissue: Type of Lesion: LIVER: HEPATOCELLULAR ADENOMA, Dose [Carcinogen]: 100 MG/KG BW, 1/WK FOR 3 WK, Promoter: PHENOBARBITAL [50-06-6]): 24/24 (100%), 9/23 (39%), 61%, p<0.001 | tumour outcome (control, treated, inhibition, significance) (Carcinogen: N-METHYL-N-NITROSOUREA [684-93-5], Dose [Inhibitor]: 0, 20 MG/L IN DRINKING WATER 15 HR/D FOR 3 D BEGINNING 2 D PRIOR TO CARCINOGEN DOSE (STUDY DURATION: LIFETIME), Route [Inhibitor]: ORAL, Species: RAT, Strain/Sex: LIO/FEMALE, Target Tissue: Type of Lesion: TUMORS, Dose [Carcinogen]: 50 MG/KG BW ONCE (STUDY DURATION: LIFETIME), Promoter: NONE): 12/24 (50%), 8/23 (34.8%), 30.4%, not significant | tumour outcome (control, treated, inhibition, significance) (Carcinogen: N-METHYL-N-NITROSOUREA [684-93-5], Dose [Inhibitor]: 8.2 MG IN 20 µL OIL CONCENTRATE BY PIPET AT THE BASE OF THE TONGUE 1X/D FOR 20 WK BEGINNING 11 D POST FIRST CARCINOGEN D, Route [Inhibitor]: ORAL, Species: RAT, Strain/Sex: SPRAGUE-DAWLEY/FEMALE, Target Tissue: Type of Lesion: MAMMARY GLAND: TUMOR, Dose [Carcinogen]: 50 MG/KG BW 1X/WK FOR 2 WK (STUDY DURATION: 22 WK), Promoter: NONE): 88%, 80%, 9%, not significant | tumour outcome (control, treated, inhibition, significance) (Carcinogen: N-METHYL-N-NITROSOUREA [684-93-5], Dose [Inhibitor]: 20 UG/ML IN DRINKING WATER 17 HR/D FOR 20 WK BEGINNING 12 D POST FIRST CARCINOGEN DOSE (STUDY DURATION: 22 WK), Route [Inhibitor]: ORAL, Species: RAT, Strain/Sex: SPRAGUE-DAWLEY/FEMALE, Target Tissue: Type of Lesion: MAMMARY GLAND: TUMOR, Dose [Carcinogen]: 50 MG/KG BW 1X/WK FOR 2 WK (STUDY DURATION: 22 WK), Promoter: NONE): 88%, 61%, 31%, not significant | tumour outcome (control, treated, inhibition, significance) (Carcinogen: N-METHYL-N-NITROSOUREA [684-93-5], Dose [Inhibitor]: 20 UG/ML IN DRINKING WATER, 17 HR/D BEGINNING 5 D BEFORE FIRST CARCINOGEN DOSE FOR 27 WK (STUDY DURATION: 27 WK), Route [Inhibitor]: ORAL, Species: RAT, Strain/Sex: SPRAGUE-DAWLEY/FEMALE, Target Tissue: Type of Lesion: MAMMARY GLAND: TUMOR, Dose [Carcinogen]: 50 MG/KG BW TWICE ON POSTNATAL DAYS 51 AND 58): 17/18 (94%), 14/19 (73.7%), 22%, not significant | tumour outcome (control, treated, inhibition, significance) (Carcinogen: N-METHYL-N-NITROSOUREA, 684-93-5, Dose [Inhibitor]: 0, 4 UG/ML IN DRINKING WATER 17 HR/D STARTING BEFORE CARCINOGEN TREATMENT FOR THE DURATION OF THE STUDY (STUDY DURATION:, Route [Inhibitor]: SUBCUTANEOUSLY, Species: RAT, Strain/Sex: SPRAGUE-DAWLEY/FEMALE, Target Tissue: Type of Lesion: MAMMARY GLAND: TUMOR, Dose [Carcinogen]: 50 MG/KG BW 2/WK FOR 1 WK BW 43-54 POSTNATAL DAYS): 80%, 65%, 19%, not significant | tumour outcome (control, treated, inhibition, significance) (Carcinogen: N-METHYL-N-NITROSOUREA, 684-93-5, Dose [Inhibitor]: 0, 20 UG/ML IN DRINKING WATER FOR 17 HR/D FOR THE DURATION OF STUDY (STUDY DURATION: 180 D), Route [Inhibitor]: ORAL, Species: RAT, Strain/Sex: SPRAGUE-DAWLEY/FEMALE, Target Tissue: Type of Lesion: MAMMARY GLAND: TUMOR, Dose [Carcinogen]: 50 MG/G BW ONCE/WK FOR 2 WK BEGINNING 12 D POST INHIBITOR TREATMENT, Promoter: NONE): 16/20 (80%), 9/16 (56.3%), 30%, not significant | tumour outcome (control, treated, inhibition, significance) (Carcinogen: NONE USED, Dose [Inhibitor]: 0, 25 UG/MOUSE/D IN DRINKING WATER FROM DAYS 21-45 OF AGE THEN 50 UG/D FOR DURATION OF STUDY (STUDY DURATION: 12 MO), Route [Inhibitor]: ORAL, Species: MOUSE, Strain/Sex: C3H/JAX/FEMALE, Target Tissue: Type of Lesion: MAMMARY GLAND: ADENOCARCINOMA): 10/16 (63%), 9/39 (23%), 63%, p<0.02 | outcome (Species: RAT, Strain/Sex: LIO/FEMALE, Target Tissue: Type of Lesion: 7/21 (33%), 4/21 (19%), 42%, NOT SIGNIFICANT): 0.4, 0.2, 50%, not significant | outcome (Species: RAT, Strain/Sex: LIO/FEMALE, Target Tissue: Type of Lesion: 12/21 (57%), 3/21 (4%), 93%, P<0.01): 0.8, 0.1, 88%, p<0.01 | outcome (Species: RAT, Strain/Sex: LIO/FEMALE, Target Tissue: Type of Lesion: 20/21 (95%), 12/21 (57%), 40%, P<0.01): 2.8, 1.2, 57%, p<0.01
